Experimental data from patent publication US9290788B2, “Device for determining or studying the state of stimulation of the natural defences of plants or portions of plants” (Institut National De La Recherche Agronomique, priority 2010, dated 2016).
Values joined by “and” are separate entries in the source; they are usually repeats but may differ in a detail not shown here. Equal values may be shown once.

Columns and labels:
[1] = system: 28 target genes (defense genes) in apple tree leaves; assay: Test 1: relative expression of the 28 defense genes (qPCR, ΔΔCt) in apple tree seedling leaves subjected to NDS treatments and abiotic stresses; format: in vivo, apple tree seedlings (Golden Delicious); conditions: for effect on the modulation of target gene expression (in words): Test 1; for Relative expression APOX (log base 2) / Relative expression DFR (log base 2) / Relative expression EIN3 (log base 2) / Relative expression POX (log base 2) / Relative expression WRKY (log base 2) / Relative expression CAD (log base 2) / Relative expression GST (log base 2) / Relative expression LOX2 (log base 2) / Relative expression ACCO (log base 2) / Relative expression CHS (log base 2) / Relative expression CSL (log base 2) / Relative expression CalS (log base 2) / Relative expression EDS1 (log base 2) / Relative expression FPPS (log base 2) / Relative expression Far (log base 2) / Relative expression HMGR (log base 2) / Relative expression JAR (log base 2) / Relative expression PPO (log base 2) / Relative expression Pect (log base 2): abiotic stress; for Relative expression of PR-2 / Relative expression of PR-4 / Relative expression of PR-8 / Relative expression of ANS / Relative expression of PAL / Relative expression of PR-1 / Relative expression of PR-5 / Relative expression of PR-14 / Relative expression of PR-15: vs water control, abiotic stress treatment
[2] = system: 28 target genes (defense genes) in apple tree leaves; assay: Test 2: analysis of defenses, expression of the 28 genes (qPCR) in apple tree seedlings sprayed with 10 NDS candidates, with or without hydrogen peroxide; format: in vivo, apple tree seedlings (Golden Delicious)

OO [H2O2, hydrogen peroxide]
effect on the modulation of target gene expression (in words) [1]: only slightly modulate the target gene expressions
Relative expression APOX (log base 2) ([1]; J2, relative to water control): 0.41 and 0.38
Relative expression DFR (log base 2) ([1]; J2, relative to water control): 0.50 and 0.80
Relative expression EIN3 (log base 2) ([1]; J2, relative to water control): 1.44 and 1.53
Relative expression POX (log base 2) ([1]; J2, relative to water control): 1.07 and 1.06
Relative expression WRKY (log base 2) ([1]; J2, relative to water control): −0.04 and −0.12
Relative expression CAD (log base 2) ([1]; J3, relative to water control): −0.72 and −0.54
Relative expression GST (log base 2) ([1]; J3, relative to water control): 0.33 and 0.40
Relative expression LOX2 (log base 2) ([1]; J3, relative to water control): 0.16 and 0.42
Relative expression of PR-2 ([1]; J2): 4.75 log2 and 3.92 log2
Relative expression of PR-4 ([1]; J2): 2.53 log2 and 4.27 log2
Relative expression of PR-8 ([1]; J2): 0.83 log2 and 0.79 log2
Relative expression of PR-2 ([1]; J3): 2.36 log2 and 3.38 log2
ANS expression ([2]; J2 + H2O2): −0.63
CHS expression ([2]; J2 + H2O2): −0.80
DFR expression ([2]; J2 + H2O2): −0.65
FPPS expression ([2]; J2 + H2O2): 0.06
HMGR expression ([2]; J2 + H2O2): 1.05
PAL expression ([2]; J2 + H2O2): −0.56
PPO expression ([2]; J2 + H2O2): 1.20
PR1 expression ([2]; J2 + H2O2): 0.85
PR2 expression ([2]; J2 + H2O2): 3.69
PR4 expression ([2]; J2 + H2O2): 3.89
PR5 expression ([2]; J2 + H2O2): 0.91
PR8 expression ([2]; J2 + H2O2): 2.12
PR14 expression ([2]; J2 + H2O2): 1.32
PR15 expression ([2]; J2 + H2O2): −0.26
ANS expression ([2]; J3 + H2O2): −0.49
CHS expression ([2]; J3 + H2O2): −0.75
DFR expression ([2]; J3 + H2O2): −0.36
FPPS expression ([2]; J3 + H2O2): 0.08
HMGR expression ([2]; J3 + H2O2): 0.14
PAL expression ([2]; J3 + H2O2): −0.57
PPO expression ([2]; J3 + H2O2): 0.71
PR1 expression ([2]; J3 + H2O2): 1.41
PR2 expression ([2]; J3 + H2O2): 4.05
PR4 expression ([2]; J3 + H2O2): 2.59
PR5 expression ([2]; J3 + H2O2): 1.73
PR8 expression ([2]; J3 + H2O2): 1.73
PR14 expression ([2]; J3 + H2O2): 3.29
PR15 expression ([2]; J3 + H2O2): 1.57

OO [H202]
ACCO expression ([2]; J2 + H2O2): 0.60
APOX expression ([2]; J2 + H2O2): −0.37
CAD expression ([2]; J2 + H2O2): −0.32
CSL expression ([2]; J2 + H2O2): 2.28
CalS expression ([2]; J2 + H2O2): −0.31
EDS1 expression ([2]; J2 + H2O2): 1.12
EIN3 expression ([2]; J2 + H2O2): −0.20
FAR expression ([2]; J2 + H2O2): 1.07
GST expression ([2]; J2 + H2O2): 0.21
JAR expression ([2]; J2 + H2O2): −0.62
LOX2 expression ([2]; J2 + H2O2): −0.39
PECT expression ([2]; J2 + H2O2): 0.01
POX expression ([2]; J2 + H2O2): 2.12
WRKY expression ([2]; J2 + H2O2): 1.42
ACCO expression ([2]; J3 + H2O2): 0.37
APOX expression ([2]; J3 + H2O2): 0.36
CAD expression ([2]; J3 + H2O2): 0.30
CSL expression ([2]; J3 + H2O2): 1.32
CalS expression ([2]; J3 + H2O2): 0.04
EDS1 expression ([2]; J3 + H2O2): 1.44
EIN3 expression ([2]; J3 + H2O2): 0.33
FAR expression ([2]; J3 + H2O2): 0.12
GST expression ([2]; J3 + H2O2): 0.30
JAR expression ([2]; J3 + H2O2): 0.09
LOX2 expression ([2]; J3 + H2O2): −0.03
PECT expression ([2]; J3 + H2O2): 1.53
POX expression ([2]; J3 + H2O2): 1.61
WRKY expression ([2]; J3 + H2O2): 1.27

C[n+]1ccc(-c2cc[n+](C)cc2)cc1 [Paraquat, paraquat dichloride x-hydrate]
effect on the modulation of target gene expression (in words) [1]: strongly activates some genes
Relative expression ACCO (log base 2) ([1]; J1, relative to water control): −1.33
Relative expression APOX (log base 2) ([1]; J1, relative to water control): 0.00
Relative expression CAD (log base 2) ([1]; J1, relative to water control): 0.04
Relative expression CHS (log base 2) ([1]; J1, relative to water control): −1.56
Relative expression CSL (log base 2) ([1]; J1, relative to water control): 2.29
Relative expression CalS (log base 2) ([1]; J1, relative to water control): 0.00
Relative expression DFR (log base 2) ([1]; J1, relative to water control): −0.74
Relative expression EDS1 (log base 2) ([1]; J1, relative to water control): 0.83
Relative expression EIN3 (log base 2) ([1]; J1, relative to water control): 0.00
Relative expression FPPS (log base 2) ([1]; J1, relative to water control): 1.02
Relative expression Far (log base 2) ([1]; J1, relative to water control): 2.76
Relative expression GST (log base 2) ([1]; J1, relative to water control): 1.99
Relative expression HMGR (log base 2) ([1]; J1, relative to water control): 2.85
Relative expression JAR (log base 2) ([1]; J1, relative to water control): 0.00
Relative expression LOX2 (log base 2) ([1]; J1, relative to water control): −0.58
Relative expression POX (log base 2) ([1]; J1, relative to water control): 0.00
Relative expression PPO (log base 2) ([1]; J1, relative to water control): 0.67
Relative expression Pect (log base 2) ([1]; J1, relative to water control): 0.00
Relative expression WRKY (log base 2) ([1]; J1, relative to water control): 4.01
Relative expression ACCO (log base 2) ([1]; J2, relative to water control): 0.02
Relative expression APOX (log base 2) ([1]; J2, relative to water control): 2.01
Relative expression CAD (log base 2) ([1]; J2, relative to water control): 0.27
Relative expression CHS (log base 2) ([1]; J2, relative to water control): −1.49
Relative expression CSL (log base 2) ([1]; J2, relative to water control): 4.42
Relative expression CalS (log base 2) ([1]; J2, relative to water control): 0.42
Relative expression DFR (log base 2) ([1]; J2, relative to water control): −1.14
Relative expression EDS1 (log base 2) ([1]; J2, relative to water control): 2.89
Relative expression EIN3 (log base 2) ([1]; J2, relative to water control): 0.21
Relative expression FPPS (log base 2) ([1]; J2, relative to water control): 0.15
Relative expression Far (log base 2) ([1]; J2, relative to water control): 2.30
Relative expression GST (log base 2) ([1]; J2, relative to water control): 1.83
Relative expression HMGR (log base 2) ([1]; J2, relative to water control): 1.20
Relative expression JAR (log base 2) ([1]; J2, relative to water control): −0.81
Relative expression LOX2 (log base 2) ([1]; J2, relative to water control): −0.54
Relative expression POX (log base 2) ([1]; J2, relative to water control): 4.26
Relative expression PPO (log base 2) ([1]; J2, relative to water control): 6.27
Relative expression Pect (log base 2) ([1]; J2, relative to water control): 2.17
Relative expression WRKY (log base 2) ([1]; J2, relative to water control): 6.37
Relative expression ACCO (log base 2) ([1]; J3, relative to water control): 0.41
Relative expression APOX (log base 2) ([1]; J3, relative to water control): 1.48
Relative expression CAD (log base 2) ([1]; J3, relative to water control): −0.51
Relative expression CHS (log base 2) ([1]; J3, relative to water control): −2.04
Relative expression CSL (log base 2) ([1]; J3, relative to water control): 5.43
Relative expression CalS (log base 2) ([1]; J3, relative to water control): 0.01
Relative expression DFR (log base 2) ([1]; J3, relative to water control): −2.09
Relative expression EDS1 (log base 2) ([1]; J3, relative to water control): 2.28
Relative expression EIN3 (log base 2) ([1]; J3, relative to water control): −0.11
Relative expression FPPS (log base 2) ([1]; J3, relative to water control): −1.83
Relative expression Far (log base 2) ([1]; J3, relative to water control): 1.85
Relative expression GST (log base 2) ([1]; J3, relative to water control): 0.80
Relative expression HMGR (log base 2) ([1]; J3, relative to water control): −0.24
Relative expression JAR (log base 2) ([1]; J3, relative to water control): −2.46
Relative expression LOX2 (log base 2) ([1]; J3, relative to water control): −2.37
Relative expression POX (log base 2) ([1]; J3, relative to water control): −0.53
Relative expression PPO (log base 2) ([1]; J3, relative to water control): 4.63
Relative expression Pect (log base 2) ([1]; J3, relative to water control): −2.82
Relative expression WRKY (log base 2) ([1]; J3, relative to water control): 2.76
Relative expression of ANS ([1]; J1): 0.00 log2
Relative expression of PAL ([1]; J1): 1.99 log2
Relative expression of PR-1 ([1]; J1): 0.55 log2
Relative expression of PR-2 ([1]; J1): 4.09 log2
Relative expression of PR-4 ([1]; J1): 7.10 log2
Relative expression of PR-5 ([1]; J1): 0.00 log2
Relative expression of PR-8 ([1]; J1): 0.00 log2
Relative expression of PR-14 ([1]; J1): 2.61 log2
Relative expression of PR-15 ([1]; J1): 0.00 log2
Relative expression of ANS ([1]; J2): −2.09 log2
Relative expression of PAL ([1]; J2): 2.56 log2
Relative expression of PR-1 ([1]; J2): 3.00 log2
Relative expression of PR-2 ([1]; J2): 5.88 log2
Relative expression of PR-4 ([1]; J2): 6.93 log2
Relative expression of PR-5 ([1]; J2): −3.05 log2
Relative expression of PR-8 ([1]; J2): 5.12 log2
Relative expression of PR-14 ([1]; J2): 6.04 log2
Relative expression of PR-15 ([1]; J2): 4.77 log2
Relative expression of ANS ([1]; J3): −0.78 log2
Relative expression of PAL ([1]; J3): 0.66 log2
Relative expression of PR-1 ([1]; J3): 0.54 log2
Relative expression of PR-2 ([1]; J3): 2.53 log2
Relative expression of PR-4 ([1]; J3): 6.63 log2
Relative expression of PR-5 ([1]; J3): −8.56 log2
Relative expression of PR-8 ([1]; J3): 5.36 log2
Relative expression of PR-14 ([1]; J3): 1.28 log2
Relative expression of PR-15 ([1]; J3): −0.34 log2
